Data taken from patent US9522194B2, “Methods of using monomethylvaline compositions having phenylalanine carboxy modifications at the C-terminus” (priority 2005, dated 2016).
Non-standard residues stand in square brackets, D forms with d. Residues, ends and D or L forms follow the SMILES beside them. ξ: configuration not given here. *: point of attachment. Dolaproine = CO[C@@H]([C@@H]1CCCN1)[C@@H](C)C(=O)O; Dil = CC[C@H](C)[C@H](NC)[C@@H](CC(=O)O)OC; X1 = c1ccc(C[C@H](N*)c2nn[nH]n2)cc1; X2 = C[C@@H](N*)[C@@H](O)c1ccccc1; NMeV = CN[C@H](C(=O)O)C(C)C; ξNMeV = CNC(C(=O)O)C(C)C

Experiments:
[1] = test system: breast carcinoma cell line H3396; experiment: In vitro activity of free drugs; assay type: cell-based; settings: free drug
Description: The cytotoxic activity of MMAZ and other compounds is evaluated on the Lewis Y positive cell lines OVCAR-3, H3396 breast carcinoma, L2987 lung carcinoma and LS174t colon carcinoma Lewis Y positive cell lines can be assayed for cytotoxicity. To evaluate the cytotoxicity of compounds, cells can be seeded at approximately 5-10,000 per well in 150 μl of culture medium then treated with graded doses of compounds in quadruplicates at the initiation of assay. Cytotoxicity assays are usually carried out for 96 hours after addition of test compounds. Fifty μl of resazurin dye may be added to each well during the last 4 to 6 hours of the incubation to assess viable cells at the end of culture. Dye reduction can be determined by fluorescence spectrometry using the excitation and emission wavelengths of 535 nm and 590 nm, respectively. For analysis, the extent of resazurin reduction by the treated cells can be compared to that of the untreated control cells.

[2] = test system: renal cell carcinoma cell line 786-O; experiment: In vitro cytotoxicity of free drugs (resazurin, 96 h); assay type: cell-based; settings: free drug, read-out: IC50s (nM) 786-O
[3] = test system: renal cell carcinoma cell line Caki-1; experiment: as above; assay type: cell-based; settings: free drug, read-out: IC50s (nM) Caki-1
[4] = test system: colon carcinoma cell line HCT-116; experiment: as above; assay type: cell-based; settings: free drug, read-out: IC50s (nM) HCT-116
[5] = test system: anaplastic large cell lymphoma cell line Karpas 299; experiment: as above; assay type: cell-based, human; settings: free drug, read-out: IC50s (nM) Karpas 299
[6] = test system: Hodgkin's disease cell line L428; experiment: as above; assay type: cell-based; settings: free drug, read-out: IC50s (nM) L428
[7] = test system: Hodgkin's disease cell line L540cy; experiment: as above; assay type: cell-based; settings: free drug, read-out: IC50s (nM) L540cy
[8] = test system: CD70+ 786-O renal cell carcinoma cell line; experiment: In vitro efficacy of antibody drug conjugates, 96 hours incubation; assay type: cell-based
[9] = test system: CD70+ Caki-1 renal cell carcinoma cell line; experiment: as above; assay type: cell-based
[10] = test system: L428 cell line (CD70+, CD30+); experiment: as above; assay type: cell-based
[11] = test system: CD30+ Karpas 299 cell line; experiment: as above; assay type: cell-based, human; settings: cAC10 (chimeric anti-CD30) conjugate of the named linker-drug, 4 drugs per antibody
Description: (§1) To evaluate the cytotoxicity of Exemplary Conjugates, cells are seeded at approximately 5-10,000 per well in 150 μl of culture medium then treated with graded doses of Exemplary Conjugates in quadruplicates at the initiation of assay. Cytotoxicity assays are carried out for 96 hours after addition of test compounds. Fifty μl of the resazurin dye is added to each well during the last 4 to 6 hours of the incubation to assess viable cells at the end of culture. Dye reduction is determined by fluorescence spectrometry using the excitation and emission wavelengths of 535 nm and 590 nm, respectively. For analysis, the extent of resazurin reduction by the treated cells is compared to that of the untreated control cells.
(§2) IC50 values are defined as the concentration where growth is reduced 50% compared with untreated control cultures. Each concentration is tested in quadruplicate. The conjugates contain 4 drugs per antibody.

CD30+ L540cy cell line = experiment: as above; assay type: cell-based; settings: cAC10 (chimeric anti-CD30) conjugate of the named linker-drug, 4 drugs per antibody
Description: as §1, §2

Molecule	IC50 of c1F6 ADCs (ng/mL) 786-O [8] [ng/mL]	IC50 of c1F6 ADCs (ng/mL) Caki-1 [9] [ng/mL]	IC50 of cAC10 ADCs (ng/mL) L428 [10] [ng/mL]	IC50 of cAC10 ADCs (ng/mL) Karpas 299 [11] [ng/mL]	IC50 of cAC10 ADCs (ng/mL) L540cy (CD30+ L540cy cell line) [ng/mL]	further results
CC[C@H](C)[C@@H]([C@@H](CC(=O)N1CCC[C@H]1[C@H](OC)[C@@H](C)C(=O)N[C@@H](Cc1ccccc1)c1nn[nH]n1)OC)N(C)C(=O)[C@@H](NC(=O)C(NC)C(C)C)C(C)C (some centres unmarked) [Drug 1003] (H-[ξNMeV]V[Dil][Dolaproine]-X1)	–	–	–	–	–	IC50 ([1]; Homo sapiens): 6 nM
CC[C@H](C)[C@@H]([C@@H](CC(=O)N1CCC[C@H]1[C@H](OC)[C@@H](C)C(=O)N[C@H](C)[C@@H](O)c1ccccc1)OC)N(C)C(=O)[C@@H](NC(=O)[C@@H](NC)C(C)C)C(C)C [MMAE] (H-[NMeV]V[Dil][Dolaproine]-X2)	–	–	–	–	–	IC50 [1]: 0.7 nM
CC[C@H](C)[C@@H]([C@@H](CC(=O)N1CCC[C@H]1[C@H](OC)[C@@H](C)C(=O)N[C@@H](Cc1ccccc1)C(=O)O)OC)N(C)C(=O)[C@@H](NC(=O)[C@@H](NC)C(C)C)C(C)C [MMAF, N-methylvaline-valine-dolaisoleuine-dolaproine-phenylalanine] (H-[NMeV]V[Dil][Dolaproine]F-OH)	–	–	–	–	–	IC50 [2]: 380 nM; IC50 [3]: 234 nM; IC50 [4]: 310 nM; IC50 [5]: 240 nM; IC50 [6]: 58 nM; IC50 [7]: 130 nM; IC50 [1]: 15 nM
CO[C@@]12[C@H](COC(N)=O)C3=C(C(=O)C(C)=C(N)C3=O)N1C[C@@H]1N[C@@H]12 [Mitomycin C]	–	–	–	–	–	IC50 [2]: 32.3 nM; IC50 [3]: 14.5 nM; IC50 [4]: 166 nM; IC50 [5]: 105 nM; IC50 [6]: 187 nM; IC50 [7]: 134 nM
MaleimidocaproylNMeValValDilDapphosphonoPhe [mc-MMApF-A]	3.5	8.9	0.423	10.9	2.7	–
MaleimidocaproylNMeValValDilDapphosphonoPhe [mc-MMApF-B]	>1000	>1000	>5000	>5000	>5000	–
MaleimidocaproylValCitp-aminobenzoyl-NMeValValDil-DapphosphonoPhe [mc-vc-PAB-MMApF]	>1000	29.5	–	–	–	–
mc-MMAF	135	47.3	1.3	7.6	3.4	–
